Test results from patent US6627601B2, “Neuroprotective peptides and uses thereof” (Protarga, Inc., priority 1998, dated 2003).
Where two headings read alike, the source gives them in different places.

What was measured:
[1] = tested on: CA1 and CA3 hippocampal neurons; test: histological cell density/survival of hippocampal neurons in gerbil brains after forebrain ischemia; assay type: in vivo, male Mongolian gerbil
Method: At the time of the sacrifice, each animal was deeply anesthetized and perfused transcardially with heparinized saline followed by paraformaldehyde (4%) in phosphate buffered saline. After fixation the brains were placed in 30% sucrose for 3 days, embedded in glutaraldehyde-gelatin, cut frozen into 30μ serial sections for morphometric analysis, and stained with cresyl violet. The cell densities per 1000 microns2 were determined by computer assisted counting of grey level images at 300× viewed through an Axioplan microscope. It was determined that a maximum of 62% of the hippocampal pyramidal cells survived the ischemia in the presence of NMI 9236 as compared to 4% survival for the control saline non-drug treated animals. All analyses were carried out blind.
At 8 days post surgery the gerbils were sacrificed, perfusion fixed with formalin, and each perfused brain was embedded in glutaraldehyde-gelatin. About 300 serial sections (40 microns thick) were cut from each frozen brain, and stained with cresyl violet. Cell morphometric analysis was carried out on one out of every 10 sections by computer-assisted cell density counting of grey level images viewed at 300× through an Axioplan microscope. Focused camera input (Sony CCD) from the microscope to the IBS video screen of the Zeiss IBAS/KONTRON Image analysis system was normalized and segmented before assessing cell number. The average cell density present per a 1000 micron^2 region of the CA1 and CA3 pyramidal cell layers for the left and right side of each were determined. The analysis was carried out blind.

[2] = tested on: gerbil model for ischemic stroke (5 minute bilateral carotid occlusion); test: general locomotor activity (GLA) of gerbils after forebrain ischemia; assay type: in vivo, male Mongolian gerbil
Text: The gerbil (male Mongolian) has been widely used as an experimental model for studies of ischemic stroke because the brain blood supply is controlled by only two common carotid arteries. This unusual feature occurs in gerbils because they have an incomplete circle of Willis (Chandler et al., J. Pharmacol. Methods 14:137-146, 1985; Finkelstein et al., Restor. Neurol. Neurosci. 1:387-394, 1990; Levine and Sohn, Arch. Pathol. 87:315-317, 1969; Kahn, Neurology 22:510-515, 1972). A five minute bilateral carotid occlusion results in neuronal cell death that is predominantly localized in the CA1 subfield of the hippocampus. The CA1 neurons degenerate and virtually disappear by 7-8 days after ischemia (Akira, Res. in Immunol. 143:734-736 1992; Crain et al., Neurosci. 27:387-402, 1988). In addition, the gerbil model has the advantage that within one day after ischemia the animals increase by 100% to 200% their general locomotor activity. This readily measurable change can persist for at least eight days in most of the experimental animals (Akira, 1992; Kuroiwa et al., Neurosci. Lett. 122:141-144, 1991; Ohno et al., Eur. J Pharmacol. 193:357-361, 1991; Phillis, Brain Res. Bull. 23:467-470, 1989).
Male Mongolian gerbils were anesthetized with a mixture of isoflurane and oxygen using an inhalation apparatus (Stoelting Instrument Co.). An incision was made in the ventral neck and the common carotid arteries were isolated and occluded completely for a period of 5 minutes using microaneurysm clips. Next, the clips were removed and the incision sutured. The anesthesia was continued until the end of the i.v. injection and infusion period. Mean arterial blood pressure was monitored by a polyethylene catheter implanted in the left or right femoral […] during surgery. […]
GLA measurements were carried out in half hour sessions using the Stoelting Electronic Activity monitor (Shashoua et al., J. Med. Chem. 27:654-659, 1984; Jacob et al., J. Med. Chem. 30:1573-1576, 1987). Each gerbil's activity level was first assessed on days 3 and 1 prior to the experimental ischemia procedure to obtain a base line GLA data, then on days 1, 2, 5, and 7 after the carotid artery occlusion to determine efficacy of drug treatment. […]
Male Mongolian gerbils were anesthetized with a mixture of halothane and oxygen in Phase 1 of surgery and a cannula (an Alzet No. 2002 pump) was implanted subcutaneously in the midscapular region beneath the skin of the animal. […] All surgical procedures were carried out with a strict control of the temperature of each animal; rectal temperatures were monitored and heat was supplied via a temperature regulated heating pad. […]

[3] = tested on: rat brain hippocampal cells; test: glutamate induced neurotoxicity in hippocampal neuron cultures; assay type: cell-based; settings: 3 days of culture
Method: The effect of the neuroprotective peptides was tested on rat brain hippocampal cells. Rat brain hippocampi were isolated by dissection of 18 day old rat fetuses. […] The cultures were then incubated for 30 min at 37° C. after which glutamate was added at the concentrations indicated. Cells were counted after 3 days of culture; healthy cells and total cells were counted.

neurons = settings: compared with 68 kilodalton parent protein; Shashoua et al., 1992; cited from earlier work
[4] = tested on: AP-1 transcription factor; test: EMSA of AP-1 in nuclear extracts of neuroblastoma cultures; assay type: cell-based, mouse
Method: (§1) It was determined that NMI 9236 can turn on specific genes related to neuronal growth in neuroblastoma tissue culture experiments.
(§2) The activation of specific transcription factors was assayed using an electrophoretic mobility shift assay (EMSA, for review see: Kerr, Meth. Enzymol 254:619-632, 1995). Nuclear extracts were prepared from stimulated neuroblastoma cell cultures (10^7 cells/sample) using classical nuclear extraction protocols (Dignam et al., Nucl. Acids Res. 11: 1475-1489, 1983; Prywes and Roeder, Cell 47: 777-784, 1986). A 0.5 pmol aliquot of a synthetic ^32P labeled oligomer duplex (with a sequence known to bind a specific transcription factor, see Table 2) was mixed with 3 μg of nuclear extract protein, and the mixture incubated at room temperature for 20 minutes. Subsequent electrophoresis under non-denaturing conditions through 4% polyacrylamide gels were used to separate and resolve the high MW protein/DNA complexes (transcription factor/DNA oligomer duplex) form low MW uncomplexed DNA oligomers. Autoradiography was used to visualize and quantify the complexes formed (see FIG. 6).
Using the electrophoretic mobility shift assay (EMSA) we tested for changes in concentration of transcription factors AP-1 and NF-IL6 in neuroblastoma nuclei as a function of stimulation by peptide NMI-9236. These two factors are well known to function in cell proliferation and differentiation, and to be activated by protein kinase-C. […] Identification of the two observed bands as Jun/Fos heterodimers and Jun/Jun homodimers was based on their electrophoretic migration, as well as antibody studies (data not shown).

[5] = fura-2 calcium chelation assay in cells loaded with fura-2 and calcium; assay type: cell-based
Method: Any of the foregoing peptides can be tested for calcium binding by well known assays of calcium chelation (see, e.g. Cornell-Bell et al., Science 247:470-473, 1990; Cornell-Bell et al., Cell Calcium 12:185-204, 1991). For example, one preferred method employs the calcium sensitive dye fura-2 to measure the chelation of calcium by the isolated peptides. In such an assay, cells are loaded with fura-2 and calcium. […] An isolated peptide then is added to the cells and the diminution of fura-2 fluorescence is determined. Dose response experiments can be performed to determine the concentration at which the isolated peptide completely eliminates fura-2 fluorescence. For example, the isolated peptide of SEQ ID NO:4 completely eliminates fura-2 fluorescence at a concentration of 1 pg/ml in the cell culture medium.
Peptides, including variant peptides, can be tested for retention for any of the foregoing properties. For example, the peptides can be tested for in vitro properties initially to determine which of the variant peptides retain the ability to bind calcium ions and/or stimulate the expression of transcription factors. In vitro assays of calcium binding include contacting the peptide with an environment which contains calcium, such as a cell preloaded with calcium and a fluorescent calcium-sensitive dye, and determining the calcium binding of the peptide Peptides which retain one or more of these properties can then be used in in vivo assays of neuroprotection such as the Mongolian gerbil assay described below. Neuroprotective peptides or their variants which are conjugated to targeting compounds, labels, blood-brain barrier carriers and the like can be tested for retention of neuroprotective activity as well as for the activity of the conjugated compound (e.g., appropriate targeting, detectable labeling, ability to cross the blood-brain barrier, etc.).

[6] = tested on: NF-IL6 transcription factor; test: EMSA of NF-IL6 in nuclear extracts of neuroblastoma cultures; assay type: cell-based, mouse
Method: as §1, §2
Identification of the observed band as NF-IL6 ([…]) was based on its electrophoretic migration, as well as antibody studies (data not shown).

[7] = 1 mg/kg i.v. @ 1 hr post ischemia, day 8, n=3
[8] = 2 mM glutamate + 12 μg/ml peptide
[9] = 2 mM glutamate + 18 μg/ml peptide
[10] = NB2a mouse neuroblastoma cultures, 5-50 μg/ml
[11] = neuroblastoma cells treated for 20 hours

## K-K-D-G-D-G-D-F-A-I-D-A-P-E (KKDGDGDFAIDAPE) [NMI 9236, 14 amino acid peptide]
[1]; [7]
  Cell Density CA1-Hippocampal field: 13.3 ± 0.82 number of cells/1000 microns^2
  Cell Density CA3-Hippocampal field: 8.82 ± 0.42 number of cells/1000 microns^2
[1]; 1 mg/kg i.v. bolus at 1 hr post ischemia
  neuronal loss in CA1/CA3 versus sham operated controls (in words): essentially all the cells remained intact
[1]; icv into left lateral ventricle, 8 days post-ischemia, left side
  survival of L-CA1 neurons: 52±12%
[1]; icv into left lateral ventricle, 8 days post-ischemia, right (unprotected) side
  survival of R-CA1 neurons: 4±2%
[1]; icv, 8 days post surgery
  L-CA1 cell density as % of level of sham operated control brain: about 50%
[1]; icv, 8 days post surgery, saline controls 0.6
  L-CA1 cell density count: 6.2 per 1000 micron^2
[1]; icv, 8 days post surgery, stated comparable to saline controls
  R-CA1 cell density: ~0.6 per 1000 micron^2
[1]; in the presence of NMI 9236, 4% for control saline animals
  maximum survival of hippocampal pyramidal cells after ischemia: ≤ 62%
[2]; 1 mg/kg i.v. (femoral vein) at 1 hour after occlusion, saline control 225%
  average GLA, % of the day 1 data: 85%
[2]; i.v. injection at 10 minutes after the ischemic event, n=3
  effect on GLA (in words): blocked the development of enhanced GLA
[2]; icv delivery by Alzet pump, 1 milligram per ml, 7 days pre- and 7 days post-ischemia, n=4
  GLA, % of own GLA one day prior to surgery: 80%
[2]; subcutaneous (s.c.) injection at 1 hour after the surgery
  GLA value: 200%
[3]; [8]
  % healthy: 92%
  Healthy cells: 138
  Total cells: 150
[3]; [9]
  % healthy: 81.6%
  Healthy cells: 80
  Total cells: 98
neurons
  promotion of growth and sprouting of neurons: at least the same extent as its 68 kilodalton parent protein
[4]
  AP-1 activation, densitometric scans of the EMSA: 3-5 fold
[4]; 30 min
  activation of AP-1 relative to control: less pronounced
[4]; [10]
  level of AP-1 in the nuclei of the cells: increase
[4]; [11]
  activation of AP-1 relative to control: strong activation
[4]; serum-free medium, 20 hours
  activation of AP-1 relative to control: very strong activation
[5]; in the cell culture medium
  concentration at which the peptide completely eliminates fura-2 fluorescence: 1 pg/mL
[6]; 1 μg/ml, in comparison to control
  NF-IL6 activation, densitometric scan of the EMSA: 3-5 fold
[6]; 30 min
  activation of NF-IL6 relative to control: less pronounced
[6]; [10]
  level of NF-IL6 in the nuclei of the cells: increase
[6]; [11]
  activation of NF-IL6 relative to control: strong activation
[6]; serum-free medium, 20 hours
  activation of NF-IL6 relative to control: very strong activation

## D-F-A-I-D-A-P-E (DFAIDAPE) [SEQ ID NO:10]
[5]
  calcium chelation (in words): chelate calcium as tightly as the peptide of SEQ ID NO:3
[5]; fura-2 fluorescence
  calcium chelation effectiveness relative to peptide of SEQ ID NO:4: about half as effective as the peptide of SEQ ID NO:4
[5]; listed as SEQ ID NO: 10
  calcium chelation (in words): chelates calcium

## N[C@@H](CCC(=O)O)C(=O)O [glutamate, reference compound]
[3]; 1 mM glutamate alone
  % healthy: 51.5%
  Healthy cells: 35
  Total cells: 68
[3]; 2 mM glutamate alone
  % healthy: 40.8%
  Healthy cells: 62
  Total cells: 156
